Experimental data taken from ChEMBL document CHEMBL1155229, “Physical binding pocket induction for affinity prediction” (J Med Chem, 2009).

biological target: T1, 5-hydroxytryptamine receptor 1A (Homo sapiens, UniProt P08908); assay: Binding affinity to 5HT1A receptor; details: read-out: Kd
T1 sequence (P08908 whole entry): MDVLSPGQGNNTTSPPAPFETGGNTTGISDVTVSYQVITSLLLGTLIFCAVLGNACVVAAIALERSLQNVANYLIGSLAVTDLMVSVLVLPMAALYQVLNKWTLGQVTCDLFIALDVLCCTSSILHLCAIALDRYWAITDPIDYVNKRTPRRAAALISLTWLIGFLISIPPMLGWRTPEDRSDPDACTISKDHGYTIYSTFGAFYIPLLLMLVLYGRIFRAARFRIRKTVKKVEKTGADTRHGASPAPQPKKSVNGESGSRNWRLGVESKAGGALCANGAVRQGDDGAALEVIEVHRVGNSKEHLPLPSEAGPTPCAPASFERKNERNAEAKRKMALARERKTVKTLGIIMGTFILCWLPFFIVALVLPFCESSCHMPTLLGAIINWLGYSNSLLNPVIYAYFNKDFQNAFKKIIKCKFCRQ

SMILES	Kd
Fc1ccc([C@@H]2CCNC[C@H]2COc2ccc3c(c2)OCO3)cc1 [PAROXETINE]	30000 nM

same assay, conditions: read-out: pKd (converted)

SMILES	Kd
CCCN(CCC)[C@H]1CCc2c(F)ccc(O)c2C1	25.1 nM
C=CCN1CC[C@H]2c3ccccc3CC[C@H]21	1 nM
COc1cccc2c1C[C@H]1CCN(CC3CC3)[C@@H]1C2	31.6 nM
CCCN1CC[C@H]2c3c(cccc3OC)CC[C@H]21	0.2 nM
C=CCN1C[C@H]2c3c(O)cccc3CC[C@H]21	0.316 nM
COc1ccccc1N1CCN(C[C@@H](C(=O)NC(C)(C)C)c2ccccc2)CC1	1.26 nM
COc1cccc2c1C[C@@H]1CCN(CC3CC3)[C@@H]1C2	794 nM
CCCN1CC[C@@H]2c3c(cccc3OC)CC[C@@H]21	200 nM
CN(C)CCc1c[nH]c2ccc(O)cc12 [BUFOTENINE]	3.16 nM
Clc1cccc(N2CCNCC2)c1 [CHLOROPHENYLPIPERAZINE]	100 nM
FC(F)(F)c1cccc(C2CNCCO2)c1 (stereo not given) [FLUMEXADOL]	251 nM
O=C1c2ccccc2S(=O)(=O)N1CCCCN1CCN(c2ncccn2)CC1 [IPSAPIRONE]	3.98 nM
CN1C[C@@H](NS(=O)(=O)N(C)C)C[C@@H]2c3cccc4c3c(cn4C)C[C@H]21 [MESULERGINE]	158 nM
Clc1cncc(N2CCNCC2)n1 [MK-212]	794 nM
O=C(NCCN1CCOCC1)c1ccc(Cl)cc1 [MOCLOBEMIDE]	5010 nM
CCc1nn(CCCN2CCN(c3cccc(Cl)c3)CC2)c(=O)n1CCOc1ccccc1 [NEFAZODONE]	158 nM
Fc1ccc([C@@H]2CCNC[C@H]2COc2ccc3c(c2)OCO3)cc1 [PAROXETINE]	31600 nM
C[C@H]1[C@H](c2ccccc2)OCCN1C [PHENDIMETRAZINE]	12600 nM
Cc1nc2ccccn2c(=O)c1CCN1CCC(C(=O)c2ccc(F)cc2)CC1 [PIRENPERONE]	2510 nM
